The text below walks through data of paper PMC6386991 (International Journal of Molecular Sciences, 2019).

Where two headings read alike, the source gives them in different places. A value given as a limit tells only on which side of the number the result lay.

Data set [1] in a line: In vitro cytotoxicity assay (MTT) on CCL-110. The conditions noted are these: human, CCL-110 cells (normal human skin fibroblasts).
Description: Cytotoxicity assay was performed on CCL-110 cell line (normal, human fibroblasts derived from skin). Test over a wide range of concentrations (including the concentrations close to the IC50 of enzymatic inhibition results) was performed.
The target of data set [2] is AChE-BACE-1A protein pair (Homo sapiens, UniProt P22303+P56817). Kind of data set: Yeast three-hybrid (Y3H) test, AChE-BACE-1A. The conditions noted are these: 10 µM hybrid ligand, DDO/X/A agar plates.
The next data set has as its target Aβ (1–42) (Homo sapiens, UniProt P05067). Kind of data set: Self-induced Aβ(1–42) aggregation, Thioflavin T assay. Format: biochemical. An excerpt: Aβ(1–42) is the most amyloidogenic Aβ fragment found in the AD plaques.
Amyloid β aggregation plays a definitive role in neurodegeneration and AD progression. Thus, inhibition of the Aβ aggregation has been presented as a promising approach for the AD therapy. In order to examine the ability to inhibit Aβ aggregation spectroscopic technique which is analyse with thioflavin T have been used. We investigated the best potent inhibitor towards AChE. […] As well as the study being conducted without the presence of the inhibitor. Aβ42 was dissolved in DMSO to make 125.8 µM stock solution. Each compound (10 µL) and 10 µL of Aβ42 were added into 60 µL of phosphate buffer (PBS at pH 8.0) in a 96-well plate. After shake and incubation for 24 h at 30 °C, 20 µL of 2.5 µM ThT solution in 50 mM glycine–NaOH (pH 8.5) was added. Fluorescence excitation was measured at 446 nm with emission a wavelength of 490 nm after 5 min incubation with the dye. The reported results were obtained as the mean ± SD of triplicates of three independent experiments. […]

In data set [3] the target is T1, equine serum BuChE (EqBuChE) (Equus caballus, UniProt P81908).
T1 construct: equine serum BuChE (EqBuChE); from tissue; host or cells: equine serum
Kind of data set: biochemical. The conditions noted are these: read-out: BuChE IC50 ± SD.

The target in the next data set is EeAChE (Electrophorus electricus, UniProt O42275). Kind of data set: Kinetic characterization of AChE inhibition (Lineweaver–Burk plot). The conditions noted are these: Km and Vmax. Format: biochemical, electric eel. How it is done: To obtain the mechanism of EeAChE inhibition, kinetic experiments were performed.
Kinetic characterization of AChE and BuChE was performed using the reported method with different concentrations of the substrate (S)—acetylthiocholine iodide (in range of […]) prepared in phosphate buffer (pH 8.0). […] Then, the inhibitor (14 µL) was added into the assay solution. Kinetic characterizations of the hydrolysis of acetylthiocholine […] catalyzed by AChE were done spectrophotometrically at 412 nm. A parallel control with no inhibitor in the mixture, allowed adjusting activities to be measured at various times.

In data set [4] the test system is SH-SY5Y cells. The data set can be described thus: Neuroprotection against rotenone/oligomycin A, pre-incubation, MTT. The conditions noted are these: R/O mixture, compound 0.0001 µM.
A short description of data set [5]: ABTS radical scavenging assay. The conditions noted are these: read-out: ABTS FRS50 ± SD.
Data set [6] deals with SH-SY5Y cells. The data set can be described thus: Neuroprotection against rotenone/oligomycin A, co-incubation, MTT. The conditions noted are these: R/O mixture.
A short description of data set [7]: DPPH free-radical scavenging assay. The conditions noted are these: read-out: DPPH FRS50 ± SD. Background: The DPPH test is a chemical assay of radical scavenging.
Data set [8] in a line: pKa assay (UV spectra in buffers pH 5.6 to 12.4). Format: physicochemical. The conditions noted are these: phosphate buffers in methanol:water (1:1), pH 5.6 to 12.4, Experimental. An excerpt: LogP is one of properties used in Lipinski’s rule of five. Our compounds were designed as a potential drug in AD therapy. Fulfillment of Lipinski’s rule of five allows us to suppose that the compound will show adequate pharmacokinetics. […] In the chemical structure of our compound occur four nitrogen atoms with a free ion pair, which allow us to gradually ionize the whole compound at different pH value. […] Direct determination of the ratio between consecutive form of molecule allows to measure the pKa value (Figure 2). The change of distribution charge in molecule affects noticeably the change of the ultraviolet (UV) spectra. […] We used absorbance ratios and mathematical calculation allowed to estimate specific pH value for each ionized form and finally to calculate pKa values (Figure 3). The value pKa1 calculated by ChemAxon and ACD/Percepta software are close to value pKa1 obtained by our method. pKa2 value calculated by ChemAxon software and pKa2 calculated by ACD/Percepta were inflated in comparison with our experimental result pKa2 (Table 3). […]
Spectrophotometric measurement was performed in 96 wells plate by using Synergy H1 microplate reader (BioTek, Vinoosky, VT, USA) with Gen5 software (BioTek). […] Further calculations on UV spectra were performed by using mathematical ratios of absorbance 332/343 nm and 343/332 nm and according to methodology developed by Musil et al.. […]

Data set [9] in a line: LogP assay (HPLC, calibration curve). Format: physicochemical. The conditions noted are these: reversed-phase HPLC, Waters Xbridge C18 column; Experimental. On the procedure: After pKa assay we decided to use TEA because of the best properties for the assay. Coefficient of determination was over 0.96 for calibration curve (Figure 3). […] LogP values calculated by ChemAxon nad ACD/Percepta software were inflated in comparison to our experimental result (Table 3).
Methanol (POCH) was used as an organic modifier. Demineralized water was purified in our faculty. Triethylamine (TEA) (Sigma Aldrich) was dissolved in concentration 30 mM in methanol and in water. Ten various isocratic mobile phases were used in calibration and assay. The first mobile phase contained 50% methanol solution with 30 mM TEA and 50% water solution with 30 mM TEA. Each next mobile phase contained 5% more methanol solution; 95% methanol solution and 5% water solution mix was used as the last mobile phase; 30 mM triethylamine in all mobile phases allowed us to analyzed basic substances. Basic solutions were used, because a neutral form of the compounds was required in logP assay. […]
The test compound was eluted by all mobile phases and obtained retention times were used to calculate logkw value. LogP value was read from calibration curve. Obtained value was compared with calculated values by online software chemicalize.com (ChemAxon 2018) and ACD/Percepta Version 14.0.0 (Advanced Chemistry Development, Inc., Metropolitan Toronto, ON, Canada).

Data set [10] relates to SH-SY5Y cells. Kind of data set: Neuroprotection against oxidative stress, H2O2, MTT.
Setting [11] is: Homo sapiens, SH-SY5Y, read-out: % cell viability.

Aβ (1–42), sequence (P05067 672-713 limits assumed): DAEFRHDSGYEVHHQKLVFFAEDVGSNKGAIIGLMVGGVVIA
T1 sequence (P81908 whole entry): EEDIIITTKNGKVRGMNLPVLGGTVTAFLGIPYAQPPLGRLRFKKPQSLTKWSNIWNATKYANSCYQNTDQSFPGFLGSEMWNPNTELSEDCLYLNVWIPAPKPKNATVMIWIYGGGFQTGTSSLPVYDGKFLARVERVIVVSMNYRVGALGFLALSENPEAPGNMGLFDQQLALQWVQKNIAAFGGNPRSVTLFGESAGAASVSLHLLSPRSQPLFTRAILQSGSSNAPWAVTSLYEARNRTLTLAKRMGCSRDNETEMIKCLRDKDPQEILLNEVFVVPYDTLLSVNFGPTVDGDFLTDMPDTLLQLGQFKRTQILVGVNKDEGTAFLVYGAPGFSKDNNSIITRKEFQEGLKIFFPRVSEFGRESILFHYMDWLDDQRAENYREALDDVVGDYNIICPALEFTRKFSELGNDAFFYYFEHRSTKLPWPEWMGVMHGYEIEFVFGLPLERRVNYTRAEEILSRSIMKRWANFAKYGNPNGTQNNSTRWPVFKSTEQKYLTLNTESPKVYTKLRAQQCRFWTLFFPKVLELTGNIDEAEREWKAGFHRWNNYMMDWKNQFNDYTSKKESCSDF
AChE-BACE-1A protein pair, sequence (P22303 52-577): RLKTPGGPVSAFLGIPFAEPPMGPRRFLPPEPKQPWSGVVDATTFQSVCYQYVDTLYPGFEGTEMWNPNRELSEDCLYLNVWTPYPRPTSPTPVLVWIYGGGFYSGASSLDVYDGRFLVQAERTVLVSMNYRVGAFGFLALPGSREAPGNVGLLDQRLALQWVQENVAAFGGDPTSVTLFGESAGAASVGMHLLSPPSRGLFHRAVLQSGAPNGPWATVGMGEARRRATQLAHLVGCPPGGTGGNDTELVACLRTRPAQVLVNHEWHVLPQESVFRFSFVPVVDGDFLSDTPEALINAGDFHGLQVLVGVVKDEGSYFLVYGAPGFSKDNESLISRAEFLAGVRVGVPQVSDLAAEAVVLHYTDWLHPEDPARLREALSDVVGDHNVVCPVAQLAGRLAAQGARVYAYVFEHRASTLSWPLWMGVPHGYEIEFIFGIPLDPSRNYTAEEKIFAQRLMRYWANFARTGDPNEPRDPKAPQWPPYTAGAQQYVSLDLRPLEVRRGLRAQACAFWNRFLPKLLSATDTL
AChE-BACE-1A protein pair, sequence (P56817 46-457): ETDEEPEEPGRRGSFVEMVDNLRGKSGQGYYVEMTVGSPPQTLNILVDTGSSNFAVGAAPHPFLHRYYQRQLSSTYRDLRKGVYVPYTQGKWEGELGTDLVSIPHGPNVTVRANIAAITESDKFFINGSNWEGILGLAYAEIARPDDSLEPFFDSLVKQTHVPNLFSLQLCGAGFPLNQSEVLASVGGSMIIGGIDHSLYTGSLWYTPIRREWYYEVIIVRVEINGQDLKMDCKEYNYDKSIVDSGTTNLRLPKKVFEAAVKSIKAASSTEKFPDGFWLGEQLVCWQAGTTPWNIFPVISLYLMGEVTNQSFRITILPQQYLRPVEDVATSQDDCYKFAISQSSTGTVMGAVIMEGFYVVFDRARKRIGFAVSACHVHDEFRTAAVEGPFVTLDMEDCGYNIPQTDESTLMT
EeAChE, sequence (O42275 24-633): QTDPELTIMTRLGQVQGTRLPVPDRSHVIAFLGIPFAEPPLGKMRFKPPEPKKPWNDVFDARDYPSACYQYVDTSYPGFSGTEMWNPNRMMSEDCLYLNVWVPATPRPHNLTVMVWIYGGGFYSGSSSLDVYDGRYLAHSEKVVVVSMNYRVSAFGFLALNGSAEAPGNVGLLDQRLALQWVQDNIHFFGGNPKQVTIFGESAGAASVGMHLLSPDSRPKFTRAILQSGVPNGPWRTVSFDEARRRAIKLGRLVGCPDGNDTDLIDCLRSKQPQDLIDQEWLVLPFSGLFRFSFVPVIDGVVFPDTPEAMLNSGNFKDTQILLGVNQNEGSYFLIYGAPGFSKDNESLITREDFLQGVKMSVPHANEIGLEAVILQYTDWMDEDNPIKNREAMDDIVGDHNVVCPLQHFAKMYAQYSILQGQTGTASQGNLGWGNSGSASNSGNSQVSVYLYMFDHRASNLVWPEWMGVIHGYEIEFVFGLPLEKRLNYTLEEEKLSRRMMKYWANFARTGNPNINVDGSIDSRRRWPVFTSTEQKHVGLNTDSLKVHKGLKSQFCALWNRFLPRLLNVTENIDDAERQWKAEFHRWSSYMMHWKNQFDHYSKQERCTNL

In [1], `O=C(NCCCCCCNc1c2c(nc3ccccc13)CCC2)c1ccc(Cl)nc1` [Compound 3e] gave an IC50 at 48 h of 0.638 µM. Also, in data set [2], the “hybrid ligand-induced interaction AChE-BACE-1A” value is listed as “Blue colonies, indicating putative interaction”. Also, the IC50 against Aβ (1–42) came out at 15 ± 0.6 µM. Further, at 10 µM the inhibition on Aβ (1–42) (10 µM compound) was 40 ± 4.8%. Testing at 25 µM on Aβ (1–42) (25 µM compound) gave an inhibition of 63 ± 4.2%. At Aβ (1–42) (50 µM compound), this compound displayed an inhibition at 50 µM of 72 ± 2.9%. The same compound had an inhibition at 100 µM at Aβ (1–42) (100 µM compound) of 79 ± 3.2%. In addition, in the data set “in vitro”, the viability at 24 h, 0.1 µM amounted to 100%; the viability at 24 h, 1 µM came out at 99.7%; the viability at 24 h, 10 µM is 93%. The IC50 in [3] turned out to be 0.153 ± 0.02 µM. In addition, at EeAChE, the “type of EeAChE inhibition” value was “mixed inhibition”. Moreover, the neuroprotection in the data set with SH-SY5Y cells [4] came to 3.98%. The EC50 in [5] is more than 20000 µM. Moreover, in the data set on SH-SY5Y cells [6], the “neuroprotective properties (in words)” value is listed as “did not have neuroprotective properties at any concentrations”. Also, the EC50 in data set [7] was more than 20000 µM. Moreover, the pKa in data set [8] (read-out: pKa1) was 8.53. Moreover, the pKa in data set [8] (read-out: pKa2) worked out at 11.3. In [9], the chromatographic logP is 3.99. For the same compound, the “neuroprotective activity (in words)” value with SH-SY5Y cells [10] (H2O2 100 µM, compound 10–0.01 µM) is reported as “at none concentration, 3e had neuroprotective activity”. Also, in the data set on SH-SY5Y cells [10] (setting [11]), the viability at 0.01 µM stood at 60.4%, the viability at 0.1 µM amounted to 29.2%, the viability at 1 µM worked out at 18.4% and the viability at 10 µM amounted to 14.3%.

For orientation: IC50 means the concentration needed to halve the response being measured. In general, inhibition refers to the relative decrease from the control value, in per cent. Higher therefore signals a strong effect. The viability is a read-out of living cells in per cent, often relative to untreated cells. The term chromatographic logP denotes lipophilicity estimated from chromatographic retention. A low value points to lower lipophilicity.
